US20090105261A1, “Novel substituted pyrazolo[1,5<I>A</I>]-1,3,5-Triazine derivatives and their analogues, pharmaceutical compositions containing same, use thereof as medicine and methods for preparing same” (GREENPHARMA, priority 2002, published 2009)
One block for each molecule: values may come before it.

Key:
[1] = test system: TNFα; assay: TNFα in supernatants of LPS-activated venous blood mononuclear cells (PBMCs), EIA; type: cell-based; settings: PBMC, LPS 1 μg/ml, 24 hours incubation
Method: The compounds according to the invention were evaluated for their anti-inflammatory properties on venous blood mononuclear cells (PBMCs). More particularly, the cells were incubated for 24 hours in the presence of the molecule tested, after activation with lipopolysaccharide (LPS) (1 μg/ml) according to the protocol described by Schindler, R., Mancilla, J., Endres, S., Ghorbani, R., Clark, S. C. and Dinarello, C. A. (Blood, 1990, 75, 40-47). After incubation, the TNFα concentrations were measured in the culture supernatants by the EIA method.

[2] = target: T1, PDE6 (bovine) (Bos taurus, UniProt P11541+P23439); assay: PDE6 inhibition (selectivity); type: biochemical; settings: substrate [3H]cGMP+cGMP 2 μM
T1 sequence (P11541 2-856): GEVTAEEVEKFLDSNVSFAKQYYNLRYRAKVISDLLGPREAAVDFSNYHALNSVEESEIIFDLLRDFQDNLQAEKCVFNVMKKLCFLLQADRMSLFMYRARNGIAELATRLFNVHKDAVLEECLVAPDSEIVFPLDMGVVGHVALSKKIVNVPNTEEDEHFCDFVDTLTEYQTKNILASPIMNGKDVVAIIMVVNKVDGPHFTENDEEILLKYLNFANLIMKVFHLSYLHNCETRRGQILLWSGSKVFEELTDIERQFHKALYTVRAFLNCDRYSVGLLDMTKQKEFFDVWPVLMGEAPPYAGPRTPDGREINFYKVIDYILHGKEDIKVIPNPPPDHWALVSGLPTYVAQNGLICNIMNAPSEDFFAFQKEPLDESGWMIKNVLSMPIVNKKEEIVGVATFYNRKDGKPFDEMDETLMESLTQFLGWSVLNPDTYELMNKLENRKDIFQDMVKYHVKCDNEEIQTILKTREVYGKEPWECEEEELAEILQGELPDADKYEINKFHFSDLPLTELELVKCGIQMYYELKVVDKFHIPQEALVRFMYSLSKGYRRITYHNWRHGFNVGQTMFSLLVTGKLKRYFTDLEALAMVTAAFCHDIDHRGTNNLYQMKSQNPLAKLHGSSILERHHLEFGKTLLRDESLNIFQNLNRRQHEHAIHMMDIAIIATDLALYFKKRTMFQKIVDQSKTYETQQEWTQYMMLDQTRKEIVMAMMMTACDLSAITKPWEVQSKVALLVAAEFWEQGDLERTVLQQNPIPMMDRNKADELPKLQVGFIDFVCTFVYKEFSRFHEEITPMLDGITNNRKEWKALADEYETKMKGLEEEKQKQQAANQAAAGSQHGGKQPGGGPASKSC
T1 sequence (P23439 2-850): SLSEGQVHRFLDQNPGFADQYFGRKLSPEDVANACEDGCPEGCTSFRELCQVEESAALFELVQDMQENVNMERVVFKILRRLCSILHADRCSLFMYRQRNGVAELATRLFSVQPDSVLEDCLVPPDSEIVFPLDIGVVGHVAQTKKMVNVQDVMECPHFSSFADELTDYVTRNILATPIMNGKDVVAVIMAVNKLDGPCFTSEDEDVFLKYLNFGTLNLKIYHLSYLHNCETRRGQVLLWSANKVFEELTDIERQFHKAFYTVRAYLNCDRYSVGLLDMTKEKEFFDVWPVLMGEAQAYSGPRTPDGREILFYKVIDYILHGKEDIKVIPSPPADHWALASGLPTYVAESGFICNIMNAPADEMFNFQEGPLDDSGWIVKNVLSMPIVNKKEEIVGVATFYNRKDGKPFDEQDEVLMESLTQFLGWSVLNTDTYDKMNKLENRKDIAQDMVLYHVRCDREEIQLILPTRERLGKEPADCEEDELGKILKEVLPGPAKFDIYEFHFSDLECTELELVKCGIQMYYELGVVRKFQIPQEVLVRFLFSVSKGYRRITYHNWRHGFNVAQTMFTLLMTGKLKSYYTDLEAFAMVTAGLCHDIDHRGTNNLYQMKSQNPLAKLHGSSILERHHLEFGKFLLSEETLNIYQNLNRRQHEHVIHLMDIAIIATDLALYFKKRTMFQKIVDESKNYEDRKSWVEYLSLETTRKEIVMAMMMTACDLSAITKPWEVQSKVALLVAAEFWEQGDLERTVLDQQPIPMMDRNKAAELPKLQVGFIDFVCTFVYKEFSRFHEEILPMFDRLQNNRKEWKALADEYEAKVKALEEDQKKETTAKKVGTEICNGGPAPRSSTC
T1 sequence (P04972 1-87 partner): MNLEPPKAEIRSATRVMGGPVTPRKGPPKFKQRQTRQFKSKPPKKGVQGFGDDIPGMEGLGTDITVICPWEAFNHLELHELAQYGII
Source text: (§1) cyclic nucleotide phosphodiesterases: PDE1 (bovine), PDE3 (human), PDE5 (human) and PDE6 (bovine), by following the methods described, respectively, by: (i, PDE1) Nicholson C. D., JACKMAN S. A. and WILKE R. (Brit. J. Pharmacol. 1989, 97, 889-897); (ii, PDE3 and PDE5) Weishaar, R. E., Burrows, S. D., Kobylarz, D. C., Quade, M. M. and Evans, D. B. (Biochem. Pharmacol., 1986, 35, 787-800); (iii PDE6) Ballard, A. S., Gingell, C. J., Tang, K., Turner, L. A., PRICE, M. E. (J. Urol, 1998, 159, 2164-2171). […] In the case of PDE5 and PDE 6, the substrate used is ([3H]cGMP+cGMP) at a concentration of 1 μM for PDE5 and 2 μM for PDE6. A quantitative measurement of the hydrolysis products [3H]-5′-AMP and [3H]-5′-GMP was determined by scintillation.

[3] = target: T2, human phosphodiesterase type 2 (source: U-937 cells) (Homo sapiens, UniProt O00408); assay: PDE2 inhibition, [3H]cAMP hydrolysis, scintillation; type: biochemical; settings: substrate [3H]cAMP+cAMP 1 μM, 30 minutes at 30° C.
T2 construct: human phosphodiesterase type 2 (source: U-937 cells); endogenous in cells; host or cells: U-937 cells
T2 sequence (O00408 whole entry): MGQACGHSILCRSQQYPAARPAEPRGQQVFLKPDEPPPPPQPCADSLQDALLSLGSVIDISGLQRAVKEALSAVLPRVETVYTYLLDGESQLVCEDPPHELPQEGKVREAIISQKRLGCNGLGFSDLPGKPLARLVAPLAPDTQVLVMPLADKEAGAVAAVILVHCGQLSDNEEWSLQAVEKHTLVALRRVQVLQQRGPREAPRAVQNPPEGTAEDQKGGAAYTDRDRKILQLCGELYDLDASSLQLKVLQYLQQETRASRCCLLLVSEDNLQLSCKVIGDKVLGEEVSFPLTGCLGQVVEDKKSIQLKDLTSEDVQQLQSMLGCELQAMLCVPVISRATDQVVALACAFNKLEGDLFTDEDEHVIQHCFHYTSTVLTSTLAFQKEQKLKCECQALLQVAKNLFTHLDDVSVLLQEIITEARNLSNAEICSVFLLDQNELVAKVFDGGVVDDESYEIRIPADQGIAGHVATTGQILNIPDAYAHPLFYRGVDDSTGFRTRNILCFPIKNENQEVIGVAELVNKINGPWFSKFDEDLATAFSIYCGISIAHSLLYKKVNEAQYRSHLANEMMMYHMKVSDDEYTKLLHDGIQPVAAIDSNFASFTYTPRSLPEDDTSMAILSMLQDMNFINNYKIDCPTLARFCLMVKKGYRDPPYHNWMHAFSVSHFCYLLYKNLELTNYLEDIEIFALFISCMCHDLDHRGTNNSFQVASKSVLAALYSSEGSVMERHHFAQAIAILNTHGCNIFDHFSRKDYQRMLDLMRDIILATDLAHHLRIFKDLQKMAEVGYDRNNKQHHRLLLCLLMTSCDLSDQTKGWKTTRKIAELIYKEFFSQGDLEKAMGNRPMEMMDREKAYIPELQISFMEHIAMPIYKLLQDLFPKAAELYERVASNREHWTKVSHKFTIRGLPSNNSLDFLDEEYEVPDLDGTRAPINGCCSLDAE
Method: This novel family of compounds was tested as an inhibitor of human phosphodiesterase type 2 (source: U-937 cells) by following the method described by Torphy, T. J., Zhou, H. L. and Cieslinski, L. B. (J. Pharmacol. Exp. Ther., 1992, 263, 1195-1205). […] A quantitative measurement of the hydrolysis product [3H]-5′-AMP was determined by scintillation.

[4] = test system: neurons cultured from fetal rat brain cortex; assay: Neurite development in primary neuron cultures from fetal rat brain cortex; type: cell-based
Method: FIG. 1 represents the effect of the molecule Ia5 on neurons in culture. The neurons are cultured in Neurobasal medium from fetal rat brain cortex according to the procedure described in example 4 and are photographed without staining 17 days after being placed in culture. Culture A is a control culture without compound. The molecule Ia5 was added to culture B on the 8th day after the placing in culture, at a concentration of 50 μM.
Compounds according to the invention were evaluated for their neurotrophic properties. The idea is therefore to observe the behavior of a neuron cell culture in the absence and presence of such molecules. The molecule called Ia5 used during this example is a molecule having the general structure Ic1, where n=2 and m=0, in the form of a sodium salt.
The adult animals are mated and the female rats are separated the following day. After 16 days, the gestating rats undergo a cesarean and the fetuses are placed in a Petri dish 100 mm in diameter. They are transferred, under a laminar flow hood, into sterile medium. The fetuses are isolated by units and are dissected under a binocular magnifying lens in sterile medium. The cerebral cortex is isolated and placed in a tube containing Neurobasal medium without antibiotic. […] The cells are counted using a Mallassez hematometer in the presence of trypan blue in order to determine the cell viability. […]

[5] = test system: motoneurons; assay: Motoneuron apoptosis induced by peroxynitrite; type: cell-based; settings: concentration of 1 mM
Method: This test was carried out according to the protocol described by Cassina P. et al. (J. Neurosci. Res. 2002 67(1): 21-9). Briefly, the oxidative stress mediated by nitric oxide and its toxic metabolite, peroxynitrite, has been associated with motoneuron degeneration, in particular in amyotrophic lateral sclerosis. The astrocytes of the spinal cord respond to extracellular concentrations of peroxynitrite by adopting a phenotype which is cytotoxic for the motoneurons. In this model of apoptosis induced by peroxynitrite, the compound sodium 4-[[1-(oxo)-3-(4-oxopyrazolo[1,5-a]-1,3,5-triazin-8-yl)propyl]amino]benzoate (Ia5) protects more than 60% of the neurons at a concentration of 1 mM.

[6] = test system: rat embryonic motoneuron cells; assay: Apoptosis induced by elimination of BDNF in primary motoneuron cultures; type: cell-based; settings: BDNF deprivation; concentration of 1 mM
Method: This test was carried out according to the protocol described by Estevez A. G. et al. (J. Neurosci. 1998, 18(3), 923-931). Briefly, when primary cultures of rat embryonic motoneuron cells are deprived of brain-derived neurotrophic factor (BDNF), an induction of neuronal nitric oxide synthase (NOS) was observed, resulting in the gradual death of the neurons by apoptosis: between 18 and 24 hours after having realized the biological preparation, more than 60% of the neurons die. In this model of induced apoptosis, the compound sodium 4-[[1-(oxo)-3-(4-oxopyrazolo[1,5-a]-1,3,5-triazin-8-yl)propyl]amino]benzoate (Ia5) protects more than 70% of the neurons at a concentration of 1 mM.

[7] = test system: PDE1 (bovine); assay: PDE1 inhibition (selectivity); type: biochemical; settings: substrate [3H]cAMP+cAMP 1 μM, 30 minutes at 30° C.
Source text: as §1

melting point: 150 to 152 °C
Compound: CCCc1nc(N(C)c2ccccc2)n2ncc(C(O)c3cccs3)c2n1 (stereo not shown) [Ib18, 8-[(Hydroxy)(2-thienyl)methyl]-4-(N-methyl-N-phenylamino)-2-n-propylpyrazolo[1,5-a]-1,3,5-triazine]

IC50 [1]: 4.6 µM
Compound: C[C@@H]1C[C@H]2[C@@H]3CCC4=CC(=O)C=C[C@]4(C)[C@@]3(F)[C@@H](O)C[C@]2(C)[C@@]1(O)C(=O)CO [dexamethasone]

melting point: 142 to 144 °C
Compound: CCCc1nc(N(C)c2ccccc2)n2ncc(C(O)c3ccoc3)c2n1 (stereo not shown) [Ib15, 8-[(3-Furyl)(hydroxy)methyl]-4-(N-methyl-N-phenylamino)-2-n-propylpyrazolo[1,5-a]-1,3,5-triazine]

Continued, molecule first:

Compound: CCCOc1ccccc1-c1nc2nn[nH]c2c(=O)[nH]1 [zaprinast]
IC50 [2]: 0.38 µM

Compound: CCCCCC[C@@H]([C@@H](C)O)n1cnc2c(N)ncnc21 (racemic) [EHNA]
IC50 [3]: 2.1 µM

Compound: O=C(CCc1cnn2c(=O)[nH]cnc12)Nc1ccc(C(=O)[O-])cc1.[Na+] [Ia5, Sodium 4-[[1-(oxo)-3-(4-oxopyrazolo[1,5-a]-1,3,5-triazin-8-yl)propyl]amino]benzoate]
neurite morphology in culture B compared with control A (FIG. 1) ([4]; 50 μM added on the 8th day, photographed 17 days after being placed in culture): thickening and an elongation of the neurites | neurite development compared with control cells ([4]; primary fetal rat cortex neurons, test molecule at 0.1, 1 and 10 μmol/l): greater neurite development than in the cells acting as control | neurons protected [5]: more than 60% | neurons protected [6]: more than 70%

Compound: COCc1nc2c([nH]1)c(=O)n(C)c(=O)n2CC(C)C [8-methoxy-IBMX]
IC50 [7]: 2.9 µM
